The numbers were not newly measured in patent US20210008004A1, “CANNABINOID FORMULATIONS AND METHODS INCLUDING THE ANTIOXIDANT C60” (priority 2017, published 2021), which cites them from elsewhere.

The target of data set [1] is peripheral CB2-receptors (Homo sapiens, UniProt P34972). To be noted: in vivo.
Data set [2] concerns the target CB1 receptor (Homo sapiens, UniProt P21554).
Data set [3] has as its system rodent.

Chain of peripheral CB2-receptors (P34972 whole entry): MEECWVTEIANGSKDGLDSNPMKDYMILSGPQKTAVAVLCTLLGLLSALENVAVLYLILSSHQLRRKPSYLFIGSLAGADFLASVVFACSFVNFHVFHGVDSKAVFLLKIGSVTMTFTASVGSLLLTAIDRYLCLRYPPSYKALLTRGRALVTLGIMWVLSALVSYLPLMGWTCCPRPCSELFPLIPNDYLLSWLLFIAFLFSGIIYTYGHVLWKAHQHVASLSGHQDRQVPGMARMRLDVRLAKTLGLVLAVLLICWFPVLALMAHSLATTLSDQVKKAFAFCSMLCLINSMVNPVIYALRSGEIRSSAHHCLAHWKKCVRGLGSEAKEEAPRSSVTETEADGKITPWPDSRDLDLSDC
Chain of CB1 receptor (P21554 whole entry): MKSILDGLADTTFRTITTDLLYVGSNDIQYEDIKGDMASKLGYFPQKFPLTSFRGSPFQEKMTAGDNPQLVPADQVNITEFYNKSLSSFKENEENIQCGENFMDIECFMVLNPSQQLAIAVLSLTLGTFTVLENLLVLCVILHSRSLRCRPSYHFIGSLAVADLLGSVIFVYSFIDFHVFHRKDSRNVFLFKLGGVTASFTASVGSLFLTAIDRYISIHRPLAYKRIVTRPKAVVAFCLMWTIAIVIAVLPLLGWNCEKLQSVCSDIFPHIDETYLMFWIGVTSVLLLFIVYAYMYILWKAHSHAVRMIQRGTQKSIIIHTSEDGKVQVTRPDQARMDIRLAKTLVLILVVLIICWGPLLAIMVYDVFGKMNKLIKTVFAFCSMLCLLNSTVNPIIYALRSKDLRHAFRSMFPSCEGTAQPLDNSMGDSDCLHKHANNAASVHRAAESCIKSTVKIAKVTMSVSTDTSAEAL

Regarding `C=C1CC/C=C(\C)CC[C@@H]2[C@@H]1CC2(C)C` [beta-caryophyllene], in data set [1], the “agonist activity at peripheral CB2-receptors” value is recorded as “selective agonist”.
Take `COc1ccc(/C=C/c2cc(OC)cc(=O)o2)cc1` [Yangonin]: the “affinity to the CB1 receptor” value in data set [2] is reported as “significant affinity”.
For `c12c3c4c5c1c1c6c7c2c2c8c3c3c9c4c4c%10c5c5c1c1c6c6c%11c7c2c2c7c8c3c3c8c9c4c4c9c%10c5c5c1c1c6c6c%11c2c2c7c3c3c8c4c4c9c5c1c1c6c2c3c41` [Example C60, buckminsterfullerene], the “solubility in lipids or aqueous solutions” value is on record as “not typically soluble”. Further, the toxicity entry in data set [3] (even high doses) is “does not exhibit toxicity”. Moreover, the rodent life span result in data set [3] (some rodents) is “doubled”.
